From US12465591B2, “Use of carbamate compound for preventing, alleviating or treating diabetic peripheral neuropathy or chemotherapy-induced peripheral neuropathy” (SK BIOPHARMACEUTICALS CO., LTD., priority 2018, dated 2025)

How the values were obtained:
[1] = test system: streptozotocin (STZ)-induced diabetic peripheral neuropathic pain rat model (mechanical allodynia); experiment: von Frey test of mechanical allodynia in streptozotocin (STZ)-induced diabetic peripheral neuropathic pain rat model; assay type: in vivo, rat (Sprague-Dawley); settings: for bending force before administration: day 24, immediately before that day's dose
Description: (§1) Male rats (Sprague-Dawley, 160 to 180 g, Harlan Laboratories, Israel) were purchased and subjected to acclimatization for more than 1 week at an animal laboratory. The experimental animals were maintained at a light-and-darkness cycle of 12 hours, a temperature of 20 to 24° C., a relative humidity of 40 to 60%, and free access to water and food.
(§2) The degree of pain was assessed by withdrawal (avoidance response) using von Frey filaments. Mechanical stimuli were applied to the right hind paw by the use of an up-down method, and the lowest bending force showing avoidance response was defined as the paw withdrawal threshold (J Neurosci Methods, 1994; 53 (1): 55-63). First, the rats were placed in an acrylic box (13×25×13 cm^3) located on a wire mesh installed at a height of about 35 cm from the floor and stabilized for more than 20 minutes. Among von Frey filaments with various bending forces (0.008, 0.02, 0.04, 0.07, 0.16, 0.4, 0.6, 1.0, 1.4, 2.0, 4.0, 6.0, 8.0, 10.0, 15.0, 26.0, 60.0, 100, 180 and 300 g), the stimulus was started with 2.0 g of filament. The stimulus was applied to the extent of slightly bending in the direction perpendicular to the plantar surface, and the rats were stimulated with a filament with lower or higher bending force, depending on with and without reaction,
This experiment was conducted to investigate the analgesic effects of compound treatment at two different doses (10 mg/kg and 30 mg/kg) in a diabetic peripheral neuropathic pain model of rats induced by streptozotocin (STZ).
Diabetes was induced by 0.5 ml injection of streptozotocin (60 mg/kg) dissolved in citrate buffer (pH=6) into the tail vein of the rat. Animals were placed under a red lamp before injection and locked in a restraint device for administration.
In a streptozotocin (STZ)-induced diabetic peripheral neuropathic pain rat model, diabetic peripheral neuropathy was induced between 14 and 24 days after injection of STZ through the tail blood vessel of the rat. Blood glucose levels (BGL) of all animals on day 3 of the test were used to determine whether diabetes was induced, and on day 14, animals showing signs of mechanical allodynia by von Frey test were tested for BGL on day 14 and 23 of the experiment (FIG. 1).
After the experiment, all animals were euthanized with CO2.
(§3) Each experimental group was compared with the negative control group by using one-way ANOVA and Tukey […] post-test (Prism® GraphPad).

[2] = test system: taxol-induced peripheral neuropathy model (mechanical allodynia); experiment: von Frey test of mechanical allodynia in taxol-induced peripheral neuropathy rat model; assay type: in vivo, rat (Sprague-Dawley)
Description: as §1
as §2, with “reaction.” for “reaction,”
To induce peripheral neuropathy, 2 mg/kg of taxol—which is an anticancer agent commonly used for the treatment of solid cancers—was intraperitoneally (IP) administered at a dose of 0.5 ml/kg on days 1, 3, 5, 7 and 9. To confirm the induction of allodynia, von Frey test was used, and in the study only animals having […] or less of average pain threshold of hind paws were included.
On day 13 of the experiment, only animals—in which allodynia was verified by von Frey test—were selected as experimental groups, Test Compounds (10 mg/kg and 30 mg/kg) and vehicle as the negative control were orally administered 2 hours before the pain test on day 13 and day 14. Morphine (5 mg/kg) as the positive control was administered 30 minutes prior to the pain test by intraperitoneal administration on day 13 and day 14 of the experiment. After the experiment, all animals were euthanized with CO2.
as §3

## NCC1(CC(=O)O)CCCCC1 [gabapentin, reference compound]
[1]; day 14, 150 mg/kg IP
  allodynia suppressive effect compared to vehicle: no significant allodynia suppressive effect
  inhibition of allodynia, pre-treatment vs. post-treatment: the induction of allodynia was significantly inhibited
[1]; day 14, 2 hours after administration, 150 mg/kg IP, vehicle 34.50±6.61 g
  mean bending force (paw withdrawal threshold, von Frey): 51.85 ± 4.91 g
[1]; day 24, 150 mg/kg IP
  allodynia suppressive effect compared to vehicle: significant allodynia suppressive effect
  inhibition of allodynia, pre-treatment vs. post-treatment: the induction of allodynia was significantly inhibited
[1]; day 24, after administration, daily dosing from day 14, 150 mg/kg IP, vehicle 22.85±3.86 g
  mean bending force (paw withdrawal threshold, von Frey): 45.30 ± 4.63 g
[1]; after daily dosing from day 14, 150 mg/kg IP
  bending force before administration: 25.50 ± 3.95 g

## NC(=O)O[C@@H](Cn1ncnn1)c1ccccc1Cl [Test Compound]
[1]; 10 mg/kg, efficacy similar to 150 mg/kg of gabapentin
  pain reduction compared to the negative control: ~75%
[1]; day 14, 10 mg/kg PO
  allodynia suppressive effect compared to vehicle: a tendency of allodynia suppressive effect
  inhibition of allodynia, pre-treatment vs. post-treatment: the induction of allodynia was significantly inhibited
[1]; day 14, 30 mg/kg PO
  allodynia suppressive effect compared to vehicle: a tendency of allodynia suppressive effect
  inhibition of allodynia, pre-treatment vs. post-treatment: the induction of allodynia was significantly inhibited
[1]; day 14, 2 hours after administration, 10 mg/kg PO, vehicle 34.50±6.61 g
  mean bending force (paw withdrawal threshold, von Frey): 46.09 ± 4.48 g
[1]; day 24, 10 mg/kg PO
  allodynia suppressive effect compared to vehicle: significant allodynia suppressive effect
  inhibition of allodynia, pre-treatment vs. post-treatment: the induction of allodynia was significantly inhibited
[1]; day 24, 30 mg/kg PO
  allodynia suppressive effect compared to vehicle: significant allodynia suppressive effect
  inhibition of allodynia, pre-treatment vs. post-treatment: the induction of allodynia was significantly inhibited
[1]; day 24, after administration, daily dosing from day 14, 10 mg/kg PO, vehicle 22.85±3.86 g
  mean bending force (paw withdrawal threshold, von Frey): 44.36 ± 3.63 g
[1]; after daily dosing from day 14, 10 mg/kg PO
  bending force before administration: 25.18 ± 2.96 g
[1]; after daily dosing from day 14, 30 mg/kg PO
  bending force before administration: 23.55 ± 2.52 g
[2]; day 13, 10 mg/kg orally, 2 hours before the pain test
  inhibitory effect on the induction of allodynia compared to the vehicle-administration group: a tendency to inhibit the induction of allodynia
[2]; day 13, 30 mg/kg orally, 2 hours before the pain test
  inhibitory effect on the induction of allodynia compared to the vehicle-administration group: a significant inhibitory effect on the induction of allodynia
[2]; day 14, 10 mg/kg orally, 2 hours before the pain test
  inhibitory effect on the induction of allodynia compared to the vehicle-administration group: a tendency to inhibit the induction of allodynia
[2]; day 14, 30 mg/kg orally, 2 hours before the pain test
  inhibitory effect on the induction of allodynia compared to the vehicle-administration group: a significant inhibitory effect on the induction of allodynia

## CN1CC[C@]23c4c5ccc(O)c4O[C@H]2[C@@H](O)C=C[C@H]3[C@H]1C5 [morphine, Morphine, reference compound]
[2]; day 13, 5 mg/kg IP, 30 minutes prior to the pain test
  inhibitory effect on the induction of allodynia compared to the vehicle-administration group: a significant inhibitory effect on the induction of allodynia
[2]; day 14, 5 mg/kg IP, 30 minutes prior to the pain test
  inhibitory effect on the induction of allodynia compared to the vehicle-administration group: a significant inhibitory effect on the induction of allodynia
